The text below walks through data of the supplement of paper PMC3493320.

Each structure is given as a SMILES string. pIC50: −log10 of the molar value.

The experiment relates to NCI-H295R. Briefly: IC50 (antiproliferative, ATP content). Particulars: 48 h. In short, it runs like this: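 Adrenocortical carcinoma cells were plated at 1500 per well in 1536-well plates in serum-free DMEM with ITS supplement, left overnight, then given library compounds by pin transfer at 8 final concentrations spanning 0.6 nM to 46 µM and held 48 h at 37 °C, 5% CO2. ATP was measured as CellTiter-Glo luminescence after 20 min at room temperature and scaled between vehicle and positive-control wells. A four-parameter logistic model was fitted to each series. The IC50 was taken from these fits, and compounds without a concentration response were recorded as above the top dose.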
The pIC50 is the negative decadic logarithm of the IC50, by convention in mol/L. On to `CN1CCC(=C2c3ccccc3CCc3sccc32)CC1`, for which the pIC50 was under 4.34.

Consider `CO[C@H]1/C=C/O[C@@]2(C)Oc3c(C)c(O)c4c(O)c(c5c(nc6cc(C)ccn65)c4c3C2=O)NC(=O)/C(C)=C\C=C\[C@H](C)[C@H](O)[C@@H](C)[C@@H](O)[C@@H](C)[C@H](OC(C)=O)[C@@H]1C`, for which the negative logarithm of the IC50 (pIC50) was under 4.34.

`O[C@@H]1CC[C@@H](/C=C(C)/[C@H]([C@H](C)[C@@H](O)CC4=O)O[C@@]([C@H]2N(C(C([C@]3(O)O[C@H]([C@H](C[C@H](C/C(C)=C/[C@H]4CC=C)C)OC)[C@@H](OC)C[C@H]3C)=O)=O)CCCC2)=O)C[C@H]1OC` had a pIC50 of under 4.34.

`Cc1nc2n(c(=O)c1CCN1CCC(c3noc4cc(F)ccc34)CC1)CCCC2` gave a pIC50 of under 4.34.

As for `NC(Cc1ccc(Cl)cc1)C(=O)O` (stereo unspecified), the pIC50 is under 4.34.

On to `CCOc1cc(N)c(Cl)cc1C(=O)NCC1CN(Cc2ccc(F)cc2)CCO1.O=C(O)CC(O)(CC(=O)O)C(=O)O` (stereo unspecified), for which the negative logarithm of the IC50 (pIC50) is under 4.34.

`Cn1cc(NC(=O)c2cc(NC(=O)c3cc(NC=O)cn3C)cn2C)cc1C(=O)NCCC(=N)N` showed a pIC50 of under 4.34.

In turn, `O=C(O)Cc1cn(-c2ccccc2)nc1-c1ccc(Cl)cc1` gave a pIC50 of under 4.34.

Consider `CC(c1cc2ccccc2s1)N(O)C(N)=O` (stereo unspecified), for which the pIC50 was under 4.34.

`CO/N=C(\C(=O)N[C@@H]1C(=O)N2C(C(=O)O)=C(CSC(=O)c3ccco3)CS[C@H]12)c1csc(N)n1` gave a pIC50 of under 4.34.

The molecule `CC1=CCC2CC1C2(C)C` (stereo unspecified) gave a pIC50 of under 4.34.

Regarding `CCC1(c2ccccc2)C(=O)N(COC)C(=O)N(COC)C1=O`, the pIC50 is under 4.34.

On to `CC(=O)Nc1ccc(S(=O)(=O)Nc2ccc([N+](=O)[O-])cc2)cc1`, for which the pIC50 is under 4.34.

As to `CCON=O`, the pIC50 is under 4.34.

With `CC1(C)S[C@@H]2[C@H](NC(=O)[C@H](NC(=O)N3CCN(S(C)(=O)=O)C3=O)c3ccccc3)C(=O)N2[C@H]1C(=O)O`, the pIC50 was under 4.34.

Molecule `Oc1cccc(O)c1O` had a pIC50 of under 4.34.

Regarding `CCCCCCC[N+](CC)(CC)CCCCc1ccc(Cl)cc1.Cc1ccc(S(=O)(=O)[O-])cc1`, the pIC50 is under 4.34.

`Cl.O=C(c2cn(C)c1ccccc12)[C@H]3CC=4N\C=N/C=4CC3` showed a pIC50 of under 4.34.

For the molecule `Clc1ccc(C2(Cn3cncn3)OCCO2)c(Cl)c1`, the negative logarithm of the IC50 (pIC50) is under 4.34.

The molecule `COc1cc(/C=C/C(=O)CC(=O)/C=C/c2ccc(O)c(OC)c2)ccc1O` gave a pIC50 of under 4.34.

Regarding `O=C1CCC(c2ccc(-n3ccnc3)cc2)=NN1`, the pIC50 was under 4.34.

As to `NC[C@@H]1O[C@H](O[C@H]2[C@@H](O)[C@H](O[C@@H]3[C@@H](O)[C@H](N)C[C@H](N)[C@H]3O[C@H]3O[C@H](CO)[C@@H](O)[C@H](O)[C@H]3N)O[C@@H]2CO)[C@H](N)[C@@H](O)[C@@H]1O.O=S(=O)(O)O`, the pIC50 is under 4.34.

Molecule `CCC1C(C)=NN=C(c2ccc(OC)c(OC)c2)c2cc(OC)c(OC)cc21` (stereo unspecified) gave a pIC50 of under 4.34.

Take `COc1ccc2cc1Oc1cc3c(cc1OC)CC[N+](C)(C)[C@H]3Cc1ccc(cc1)Oc1c(OC)c(OC)cc3c1[C@@H](C2)[N+](C)(C)CC3.[I-].[I-]`: the pIC50 is under 4.34.

Turning to `CCN1CCC[C@H]1CNC(=O)c1cc(S(N)(=O)=O)ccc1OC`, the negative-log IC50 (pIC50) is under 4.34.

As to `Cl.O=C(O)CC/C=C\CC[C@@H]1[C@@H](N2CCCCC2)[C@@H](O)C[C@@H]1OCc1ccc(-c2ccccc2)cc1`, the pIC50 is under 4.34.

On to `Cn1c(=O)c2[nH]c(Br)nc2n(C)c1=O`, for which the pIC50 is under 4.34.

`CN(C)CCOC(c1ccccc1)c1ccccc1` showed a pIC50 of under 4.34.

In turn, `CN(C)CCCN1c2ccccc2C(C)(C)c2ccccc21` showed a pIC50 of under 4.34.

The molecule `CC(C)(C)NCC(O)COc1cccc2c1CCC(=O)N2.Cl` (stereo unspecified) had a pIC50 of under 4.34.

Molecule `CN1CC(=O)N=C1NC(=O)Nc1cccc(Cl)c1` showed a pIC50 of under 4.34.

The molecule `O=C([O-])[C@H](O)[C@@H](O)[C@H](O)[C@H](O)CO.[Na+]` had a pIC50 of under 4.34.

In turn, `O=C(OCCOCCO)c1ccccc1Nc1cccc(C(F)(F)F)c1` showed a negative logarithm of the IC50 (pIC50) of under 4.34.

In turn, `Cl.c1ccc2c(c1)CCCC2C1=NCCN1` (stereo unspecified) gave a pIC50 of under 4.34.

Molecule `Cc1c(N(C)CS(=O)(=O)[O-])c(=O)n(-c2ccccc2)n1C.[Na+]` had a pIC50 of under 4.34.

As to `O[C@H]1[C@H](O)[C@@H](O)[C@H](O)[C@@H](O)[C@H]1O`, the pIC50 was under 4.34.

For `OC1OC[C@@H](O)[C@H](O)[C@@H]1O` (stereo partly specified), the pIC50 is under 4.34.

`O=c1cc[nH]c(=O)[nH]1` had a pIC50 of under 4.34.

Regarding `O=[N+]([O-])c1cc([As](=O)(O)O)ccc1O`, the negative-log IC50 (pIC50) was under 4.34.

The molecule `O.O.O.O.O.O.O.O=S(=O)([O-])[O-].[Co+2]` showed a pIC50 of under 4.34.

Consider `Cc1cccc(Nc2ccncc2S(=O)(=O)NC(=O)NC(C)C)c1`, for which the pIC50 was under 4.34.

Regarding `CCOC(=O)[N-]c1c[n+](N2CCOCC2)no1`, the negative logarithm of the IC50 (pIC50) was under 4.34.

Molecule `CCCCC(=O)O[C@]1(C(=O)CO)CC[C@H]2[C@@H]3CCC4=CC(=O)CC[C@]4(C)[C@H]3[C@@H](O)C[C@@]21C` gave a pIC50 of under 4.34.

Molecule `c1ccc(-n2cnnn2)cc1` showed a pIC50 of under 4.34.

For the molecule `CCOC(=O)c1ccccc1C(=O)OCC`, the negative logarithm of the IC50 (pIC50) was under 4.34.

In turn, `CC[C@@H](CO)NC(=O)[C@@H]1C=C2c3cccc4c3c(cn4C)C[C@H]2N(C)C1` had a pIC50 of under 4.34.

`COP(=S)(OC)Oc1ccc(SC)c(C)c1` showed a pIC50 of under 4.34.

In turn, `CCCN(CCC)S(=O)(=O)c1ccc(C(=O)O)cc1` gave a pIC50 of under 4.34.

In turn, `COc1ccc2[nH]c(S(=O)Cc3ncc(C)c(OC)c3C)nc2n1` (stereo unspecified) showed a pIC50 of under 4.34.

The molecule `CCS(=O)(=O)C(C)(C)S(=O)(=O)CC` showed a pIC50 of under 4.34.

As to `CC(C)(C)C(=O)C(Oc1ccc(Cl)cc1)n1ccnc1` (stereo unspecified), the pIC50 was under 4.34.

The molecule `O=C1c2ccccc2C(=O)C1c1ccc(Cl)cc1` gave a pIC50 of under 4.34.

As for `CCC1(c2ccccc2)C(=O)NC(=O)N(C(=O)c2ccccc2)C1=O` (stereo unspecified), the pIC50 was under 4.34.

`CCCOc1cc(N)ccc1C(=O)OCCN(CC)CC.Cl` had a negative-log IC50 (pIC50) of under 4.34.

In turn, `Cc1ccc(S(=O)(=O)NC(=O)NC2CCCCC2)cc1` had a pIC50 of under 4.34.

`N[C@@H](C\C1=C\N=C/N1)C(O)=O.Cl` had a pIC50 of under 4.34.

Molecule `CC1CCN(CCCC(=O)c2ccc(F)cc2)CC1` had a pIC50 of under 4.34.

`O=C2N1[C@]([C@@]([H])2NC(C3=C(C)ON=C3C(C(Cl)=CC=C4)=C4F)=O)([H])SC(C)(C)[C@@H]1[C@@]([O-])=O.O.[Na+]` showed a pIC50 of under 4.34.

`CCN(C(C)=O)c1cccc(-c2ccnc3c(C#N)cnn23)c1`: the pIC50 was under 4.34.

`O=c1[nH]c(=O)n(C2CCCO2)cc1F` (stereo unspecified) showed a pIC50 of under 4.34.

`O=C(C)O[C@@](CC3)([C@](C)=O)[C@]2(C)[C@]3([H])[C@]1([H])C=C(C)C([C@@](CC4)(C)[C@]([H])1CC2)=CC4=O` showed a negative logarithm of the IC50 (pIC50) of under 4.34.

Consider `CCNC(=O)N(CCCN(C)C)C(=O)[C@@H]1C[C@@H]2c3cccc4N\C=C(\C[C@H]2N(C1)CC=C)c34`, for which the pIC50 is under 4.34.

`Cc1cn([C@H]2C[C@H](N=[N+]=[N-])[C@@H](CO)O2)c(=O)[nH]c1=O` had a pIC50 of under 4.34.

Regarding `COc1ccc(C2CNC(=O)C2)cc1OC1CCCC1` (stereo unspecified), the pIC50 is under 4.34.

As for `CN/C(=N\C#N)NCCSCc1csc(N=C(N)N)n1`, the pIC50 is under 4.34.

Molecule `C[C@](N)(Cc1ccc(O)cc1)C(=O)O` gave a pIC50 of under 4.34.

With `CCCC(=O)O[C@]1(C(=O)COC(C)=O)CC[C@H]2[C@@H]3C[C@H](F)C4=CC(=O)C=C[C@]4(C)[C@@]3(F)[C@@H](O)C[C@@]21C`, the pIC50 was under 4.34.

Molecule `O=c1[nH]c(=O)n([C@H]2C[C@H](O)[C@@H](CO)O2)cc1I` gave a pIC50 of under 4.34.

Take `O=[C@](CO)[C@](CC2)(O)[C@](CC1)(C)[C@]2([H])[C@@](CC4)([H])[C@@]1([H])[C@](CC3)(C)C4=CC3=O`: the pIC50 was under 4.34.

For the molecule `CN1C(=O)CC[C@H]1c1cccnc1`, the negative-log IC50 (pIC50) is under 4.34.

For `CCCNCC(O)COc1ccccc1C(=O)CCc1ccccc1` (stereo unspecified), the pIC50 is under 4.34.

`O=C(NCC(O)CO)c1c(I)c(C(=O)NCC(O)CO)c(I)c(N(CCO)C(=O)CO)c1I` (stereo unspecified) gave a pIC50 of under 4.34.

`CCCCCCCCCC(=O)O[C@H]1CC[C@H]2[C@@H]3CCC4=CC(=O)CC[C@]4(C)[C@H]3CC[C@]12C` had a pIC50 of under 4.34.

`CC1(C)S[C@@H]2[C@H](NC(=O)[C@@H](NC(=O)N3CCNC3=O)c3ccccc3)C(=O)N2[C@H]1C(=O)[O-].[Na+]` had a pIC50 of under 4.34.

`O=c1[nH]c(=O)c2ccccc2o1` gave a negative-log IC50 (pIC50) of under 4.34.

For `CCCc1nc(C)c2c(=O)nc(-c3cc(S(=O)(=O)N4CCN(CC)CC4)ccc3OCC)[nH]n12.O=C(O)CC(O)(CC(=O)O)C(=O)O`, the pIC50 is under 4.34.

Regarding `O=C(NNCS(=O)(=O)[O-])c1ccncc1.[Na+]`, the pIC50 is under 4.34.

Turning to `CNC1=Nc2ccc(Cl)cc2C(c2ccccc2)=[N+]([O-])C1`, the pIC50 is under 4.34.

In the case of `CC(=O)N/N=C/c1ccc([N+](=O)[O-])o1`, the pIC50 is under 4.34.

Consider `C[C@H](CCCC(C)(C)O)[C@H]1CC[C@H]2[C@@H]3CC=C4C[C@@H](O)CC[C@]4(C)[C@H]3CC[C@]12C`, for which the pIC50 was under 4.34.

In the case of `CN[C@H](CC(C)C)C(=O)N[C@H]1C(=O)N[C@@H](CC(N)=O)C(=O)N[C@H]2C(=O)N[C@H]3C(=O)N[C@H](C(=O)N[C@@H](C(=O)O)c4cc(O)cc(O)c4-c4cc3ccc4O)[C@H](O)c3ccc(c(Cl)c3)Oc3cc2cc(c3O[C@@H]2O[C@H](CO)[C@@H](O)[C@H](O)[C@H]2O[C@H]2C[C@](C)(N)C(O)[C@H](C)O2)Oc2ccc(cc2Cl)[C@H]1O.Cl` (stereo partly specified), the pIC50 is under 4.34.
